{"source": "patent US20160346249A1", "about": "(priority 2012, published 2016)", "tested_on": "FMO, human liver microsome (HLM)", "test": "FMO dependent metabolism (pre-incubation temperature), human liver microsomes", "experimental": "The microsomal incubation mixtures (ca. 0.2 mL) were prepared in triplicate in 0.1M potassium phosphate buffer (pH 7.4) containing 0.25 mg/mL microsomal protein (RLM and HLM), 1 mM EDTA, 4 mM MgCl2, and […]. Incubation mixtures were pre-incubated aerobically in a shaking water bath at 37° C. and 45° C. respectively for ca. 5 minutes. The reaction was initiated by the addition of NADPH (final concentration of 1 mM). […] For the positive controls, benzydamine (Sigma-Aldrich, St. Louis, Mo.) (final concentration 200 μM) was used in the incubation mixture. For the negative controls, water was used in the incubation mixtures instead of microsome protein. The mixtures were kept at ca. −20° C. before analysis by LC-MS/MS.\nThe incubation of benzydamine (positive control, 200 μM) was carried out concurrently and the formation of benzydamine N-oxide was monitored by LC-MS/MS.", "data": [{"smiles": "O=C1NCC2(c3ccc(Cl)c(Cl)c3)CC12", "note": "(stereo not shown) [EB-10101, 5-(3,4-dichloro-phenyl)-3-aza-bicyclo[3.1.0]hexan-2-one]", "values": [{"measurement": "FMO mediation of formation", "result": "not FMO-mediated in humans"}]}]}
